Results reported in patent EP2927230A1, “PENTAMETHINIUM SALTS WITH AN EXPANDED QUINOXALINE UNIT AND ITS USE IN ANTICANCER THERAPY” (University of Chemistry and Technology - Prague, priority 2014, dated 2015).

Columns and labels:
[1] = system: MiaPaCa-2 (human pancreatic carcinoma); test: Cytotoxicity (MTT) assay; assay type: cell-based; details: MiaPaCa-2 cell line
Description: (§1) Cells were seeded into 96-well microtitre plates to the expected target cell density (2,500-30,000 cells-well^-1, according to the particular cell line). The inoculant were pre-incubated to stabilize for 24 h (at 37°C and 5 % CO^2). Fourfold dilutions (0-200 µmol·L^-1; in triplicates) of the tested compound 1 were added to the microtitre plate wells at time zero. The cells were treated with compound 1 for 72 h under standard cultivation conditions. Then, the cells were assayed using MTT for 4 h. Produced formazan, arisen by mitochondrial reduction of MTT, was dissolved in 10 % aqueous solution of sodium dodecyl sulphate (pH 5.5; 100 µL·well^-1, hole diameter is 6.54 mm) followed by overnight incubation. […] The absorption of the produced formazan was measured at 540 nm using Labsystem iEMS Reader MF. The tumor cell inhibitory concentration (IC) of compound 1 was calculated using the following equation: IC = (ODdrug / mean ODcontrol) · 100 %. The IC50 (Table 1) value (drug concentration being lethal for 50 % of the cells) was calculated from appropriate dose-response curves. (Noskova, V.; Dz ? ubak, P.; Kuzmina, G.; Ludkova, A.; Stehlik, D.; Trojanec, R.; Jano ? akova, A.; Kor ? inkova, G.; Mihal, V.; Hajduch, M. Neoplasma 2002, 49, 418-425. 38. Hajduch, M.; Mihal, V.; Minar ? ik, J.; Faber, E.; ? afarova, M.; Weigl, E.; Antalek, P. Cytotechnology 1996, 19, 243-245)

[2] = system: LNCaP (human prostate carcinoma); test: Cytotoxicity (MTT) assay; assay type: cell-based; details: LNCaP cell line
Description: as §1

[3] = system: U-2 OS (human osteosarcoma); test: Cytotoxicity (MTT) assay; assay type: cell-based; details: U-2 OS cell line
Description: as §1

[4] = system: PE/CA-PJ34 (human basaloid squamous cell carcinoma); test: Cytotoxicity (MTT) assay; assay type: cell-based; details: PE/CA-PJ34 cell line
Description: as §1

[5] = system: 4T1(mouse mammary gland carcinoma); test: Cytotoxicity (MTT) assay; assay type: cell-based; details: 4T1 cell line
Description: as §1

[6] = system: MDA-MB-231 (human breast carcinoma); test: Cytotoxicity (MTT) assay; assay type: cell-based; details: MDA-MB-231 cell line
Description: as §1

[7] = system: MCF-7 (breast cancer cells); test: Cytotoxicity (MTT) assay; assay type: cell-based; details: MCF-7 cell line
Description: as §1

[8] = system: human breast carcinoma (MDA-MB-231); test: Effect on tumor growth in vivo (subcutaneous xenograft); parameters: species or system Nu/nu mice
Description: Effect of salt 1 on tumor growth in vivo. […] The control group (◆) consisted of untreated mice with a tumor.

## CCCN1C(=C2C=C(C=Cc3sc4ccccc4[n+]3CCC)c3nc4ccccc4nc32)Sc2ccccc21 [compound 1]
[1]
  cytotoxicity: high cytotoxicity
[2]
  cytotoxicity: high cytotoxicity
[3]
  cytotoxicity: high cytotoxicity
[4]
  cytotoxicity: high cytotoxicity
[5]
  cytotoxicity: high cytotoxicity
[6]
  cytotoxicity: high cytotoxicity
[7]
  cytotoxicity: high cytotoxicity
[8]; Nu/nu mice with MDA-MB-231, after application, for the duration of the experiment (more than 40 days)
  tumor growth: practically stopped
[8]; Nu/nu mice with human breast carcinoma (MDA-MB-231)
  anticancer effect: high anticancer effect
[8]; intravenously, 5 mgkg-1, twice a week, * p<0.05, ** p<0.01, n=5 mice per group
  differences in the tumor volume of control mice versus treated mice: Statistically significant differences
